# Data from US6921763B2, “Pyrazolopyrimidines as therapeutic agents” (Abbott Laboratories, priority 1999, dated 2005).
row,SMILES,melting point [°C]
1,Nc1ncnc2c1c(-c1ccc(Oc3ccccc3)cc1)nn2[C@H]1CC[C@@H](N2CCNCC2)CC1.O=C(O)/C=C\C(=O)O.O=C(O)/C=C\C(=O)O.O=C(O)/C=C\C(=O)O,173 to 175
2,Nc1ncnc2c1c(-c1ccc(Oc3ccccc3)cc1)nn2[C@H]1CC[C@H](N2CCNCC2)CC1.O=C(O)/C=C\C(=O)O.O=C(O)/C=C\C(=O)O.O=C(O)/C=C\C(=O)O,153 to 155
3,Nc1ncnc2c1c(-c1ccc(Oc3ccccc3)cc1)nn2C1CCOCC1,187 to 187.5
4,Nc1ncnc2c1c(-c1ccc(Oc3ccccc3)cc1)nn2C1CCC2(CC1)OCCO2,200 to 202.5
